The numbers were not newly measured in patent US20250000913A1, “SALMONELLA ENGINEERED FOR NONTOXIC COLONIZATION OF TUMORS” (priority 2021, published 2025), which cites them from elsewhere.

For data set [1] the following is noted: in vivo.
The conditions of data set [2]: mouse, in vivo.

As for `COc1cc(C(=O)c2ccc(-c3csc(NC(=O)[C@@H](N)C(C)C)n3)cc2-n2cncn2)cc(OC)c1OC.Cl` [CKD-516], the “half-life of circulating CKD-516” value in data set [1] is “about 5 hours”.
For `COc1cccc2c1C(=O)c1c(O)c3c(c(O)c1C2=O)C[C@@](O)(C(=O)CO)C[C@@H]3O[C@H]1C[C@H](N)[C@H](O)[C@H](C)O1` [doxorubicin], in data set [2], the “day on which weight gain resumed” value is 21 days and the weight loss result is reported as “over 25%”.
